Columns and labels:
[1] = target: T1, AXL kinase domain recombinant protein (Homo sapiens, UniProt P30530); test: AXL kinase inhibition, ELISA; format: biochemical; conditions: ATP 5 μM
T1 construct: the AXL kinase domain recombinant protein (eurofins, 14-512); purchased eurofins 14-512
T1 sequence (P30530 536-807 limits assumed): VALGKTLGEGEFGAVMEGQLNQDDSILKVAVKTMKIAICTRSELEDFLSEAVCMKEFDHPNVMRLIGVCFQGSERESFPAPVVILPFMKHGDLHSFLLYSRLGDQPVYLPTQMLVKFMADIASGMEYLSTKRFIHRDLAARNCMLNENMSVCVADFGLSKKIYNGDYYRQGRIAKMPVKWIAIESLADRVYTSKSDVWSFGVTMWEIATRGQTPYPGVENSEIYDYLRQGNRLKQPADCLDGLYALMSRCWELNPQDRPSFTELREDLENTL
Experimental: Detection of the activity of kinase: Enzyme-linked immunosorbent assay (ELISA) technology was used to detect the inhibitory activities of the compounds against the kinase. […] After the liquid in the well was discarded, the plate was washed three times with T-PBS (PBS containing 0.1% Tween-20), 200 μL T-PBS per well, 5 minutes for each time. The enzyme label plate was dried in an oven at 37° C. for 1-2 hours. To each well was added 50 μL of ATP solution diluted with reaction buffer (50 mM HEPES, pH 7.4, 50 mM MgCl2, 0.5 mM MnCl2, 0.2 mM Na3VO4, 1 mM DTT) with a final concentration of 5 μM. […] Two wells with no enzyme for control are required for each experiment. The plate was incubated on a shaker (100 rpm) at 37° C. and reacted for 1 hour. The plate was washed three times with T-PBS. 100 μ/well of primary antibody PY99 dilution was added and the plate was reacted in a shaker at 37° C. for 0.5 hour. The plate was washed three times with T-PBS. 100 μ/well of secondary antibody horseradish peroxidase-labeled goat anti-mouse IgG dilution was added and the plate was reacted in a shaker at 37° C. for 0.5 hour. The plate was washed three times with T-PBS. 2 mg/ml of OPD color solution was added with 100 μ/well (diluted with 0.1 M citric acid-sodium citrate buffer (pH=5.4) containing 0.03% H2O2), and the plate was reacted at 25° C. in the dark for 1-10 minutes. (Ultrasound is required for the dissolution of OPD, and the color solution needs to be prepared for immediate use). 50 μ/well of 2 M H2SO4 was added to stop the reaction, and the wavelength-adjustable enzyme-labeling instrument SPECTRA MAX 190 was used to read the data at a wavelength of 490 nm.
The inhibition rate of the sample was obtained by the following formula: […]
The IC50 values were obtained by regression with the four-parameter method using the software attached to the enzyme-labeling instrument.

[2] = test system: Mixed primary male beagle canine hepatocytes; test: Metabolism in canine hepatocytes, UPLC-UV/Q-TOF MS; format: in vitro ADME; conditions: 180 min
Experimental: (§1) In this example, a UPLC-UV/Q-TOF MS method was used to evaluate the differences in the metabolic processes of TL134 in hepatocytes of five species of human, monkey, canine, rat, and mouse.
(§2) The total volume of each incubation sample was 100 μL, the medium was WME medium (pH 7.4), and the incubation sample included hepatocytes with a cell density of 1.0×10^6 cells/mL and TL134 with a final concentration of 3.0 μM; the negative control sample was incubated with thermal-inactivated mixed hepatocytes (without cell counting) of five species of animals and TL134, and the buffer control sample was incubated with WME medium and TL134. All samples were incubated at 37° C. for 180 min, and then 100 μL of ice-cold acetonitrile was added to stop the reaction. The samples were stored at −70° C. for ready to be tested, and all incubation samples were double samples.
(§3) Triple TOF 5600′ quadrupole-time-of-flight tandem mass spectrometer (Q-TOF MS), equipped with electrospray ionization source (ESI source) and CDS automatic calibration system, AB SCIEX Company, USA; Acquity UPLC liquid chromatography system, including binary infusion pump, autosampler, column oven, degasser and TUV ultraviolet detector, Waters Company, USA. […]

[3] = test system: Mixed primary macaca fascicularis hepatocytes; test: Metabolism in monkey hepatocytes, UPLC-UV/Q-TOF MS; format: in vitro ADME; conditions: 180 min
Experimental: as §1, §2, §3

| IC50 [1] | prototype drug metabolized, judging from the UV chromatographic peak areas [2] | prototype drug metabolized, judging from the UV chromatographic peak areas [3] | Structure (SMILES) |
| --- | --- | --- | --- |
| 1.1 nM | ~15.4% | ~4.6% | COc1cc2c(Oc3ccc(NC(=O)c4c(C)n(C)c5ccc(OC(F)(F)F)cc5c4=O)cc3F)ncnc2cc1OCCCN1CCOCC1 [TL-134, N-(3-fluoro-4-((6-methoxy-7-(3-morpholinopropoxy)quinazolin-4-yl)oxy)phenyl)-1,2-dim ethyl-4-oxo-6-(trifluoromethoxy)-1,4-dihydroquinoline-3-carboxamide] |
| 1.2 nM | ~27.2% | approximately 41.3% | CCc1ccc2c(c1)c(=O)c(C(=O)Nc1ccc(Oc3ncnc4cc(OCCCN5CCOCC5)c(OC)cc34)c(F)c1)c(C)n2C [GDL5000123, 6-ethyl-N-(3-fluoro-4-((6-methoxy-7-(3-morpholinopropoxy)quinazolin-4-yl)oxy)phenyl)-1,2-dime thyl-4-oxo-1,4-dihydroquinoline-3-carboxamide, reference compound] |

From patent US20210078972A1, “QUINOLINE OR QUINAZOLINE COMPOUND AND APPLICATION THEREOF” (HAIHE BIOPHARMA CO., LTD., priority 2018, published 2021)
